Measured values reported in patent US8236828B2, “Insecticidal compounds” (Syngenta Crop Protection LLC, priority 2007, dated 2012).

Tests used:
Format in all cases: in vivo
[1] = system: Spodoptera littoralis (Egyptian Cotton Leafworm); assay: Spodoptera littoralis cotton leaf disc spray test; details: same protocol, 200 ppm, 3 DAT
Method: (§1) This Example illustrates the pesticidal/insecticidal properties of compounds of formula (I). Tests were performed as follows:
Spodoptera littoralis (Egyptian Cotton Leafworm):
(§2) • Cotton leaf discs were placed on agar in a 24-well microtiter plate and sprayed with test solutions at an application rate of 200 ppm. After drying, the leaf discs were infested with 5 L1 larvae. The samples were checked for mortality, feeding behaviour, and growth regulation 3 days after treatment (DAT). • The following compounds gave at least 80% control of Spodoptera littoralis: A1, A2, A3, A4, A5, A6, A10, A13, A17, A19. Heliothis virescens (Tobacco Budworm): • Eggs (0-24 h old) were placed in 24-well microtiter plate on artificial diet and treated with test solutions at an application rate of 200 ppm (concentration in well 18 ppm) by pipetting. After an incubation period of 4 days, samples were checked for egg mortality, larval mortality, and growth regulation. • The following compounds gave at least 80% control of Heliothis virescens: A1, A2, A3, A4, A5, A6, A7, A9, A10, A11, A12, A14, A17, A18, A19, A21. Plutella xylostella (Diamond Back Moth): • 24-well microtiter plate (MTP) with artificial diet was treated with test solutions at an application rate of 200 ppm (concentration in well 18 ppm) by pipetting. After drying, the MTP's were infested with L2 larvae (7-12 per well). […]

[2] = system: Heliothis virescens (Tobacco Budworm); assay: Heliothis virescens egg test on artificial diet; details: same protocol, 200 ppm, 4 days
Method: as §1, §2

[3] = system: Plutella xylostella (Diamond Back Moth); assay: Plutella xylostella larvae test on artificial diet; details: same protocol, 200 ppm, 6 days
Method: as §1, §2

[4] = system: Diabrotica balteata (Corn Root Worm); assay: Diabrotica balteata larvae test on artificial diet; details: same protocol, 200 ppm, 5 days

Measured: damage to the test organisms

COC(=O)c1ccc(C(=O)Nc2cc(C(=O)Nc3c(C)cc(C4(C(F)(F)F)CC(c5ccc(Cl)cc5)=NO4)cc3C)ccc2C#N)cc1 (centres unmarked) [A20]
little or no damage: [1] | [2] | [3] | [4]

CSc1cc(C(F)(F)F)ccc1C(=O)Nc1cc(C(=O)Nc2c(C)cc(C3(C(F)(F)F)CC(c4ccc(Cl)cc4)=NO3)cc2C)ccc1C#N (centres unmarked) [A8]
little or no damage: [1] | [2] | [3] | [4]
